Assay [1] has as its system Min6 cells. Put plainly: Glucose Dependent Insulin Secretion (GDIS) assay, insulinoma cell line Min6. Type of assay: cell-based, mouse. The following applies: 1 μM plus 25 mM glucose compared to 25 mM glucose alone; 2 h. The protocol:
Because activation of GPR40 is known to result in insulin secretion which is dependent on high glucose concentrations, two separate assay systems (insulinoma cell line and primary rodent islets) are developed to further characterize compounds that are known to increase intracellular calcium in the GPR40 primary assay discussed above.
GDIS assays are performed using the mouse insulinoma cell line Min6. Min6 cells are maintained in Dulbecco's Modified Eagle's Medium (DMEM) containing non-essential amino acids, 10% FBS, […] 2-mercaptoethanol and 1% penicillin and streptomycin at 37° C. plus 5% CO2. On the day of the experiment, the cells are washed twice with 200 μl of pre-warmed Krebs-ringer buffer without glucose. Addition of 200 μL of pre-warmed Krebs-ringer buffer containing 2.5 mM glucose is used to starve the cells followed by the addition of compounds in the presence of a high concentration of glucose (25 mM). The plate is incubated at 37° C. for 2 hours. At the end of the 2 h incubation, the supernatant is gently transferred into a Millipore filter plate and spun at 200 g (gravitational force) for 3 minutes. Insulin is assayed using a Mercodia Insulin estimation kit.

The target in assay [2] is T1, PPARγ (Homo sapiens, UniProt P37231).
T1 sequence (P37231 1-505): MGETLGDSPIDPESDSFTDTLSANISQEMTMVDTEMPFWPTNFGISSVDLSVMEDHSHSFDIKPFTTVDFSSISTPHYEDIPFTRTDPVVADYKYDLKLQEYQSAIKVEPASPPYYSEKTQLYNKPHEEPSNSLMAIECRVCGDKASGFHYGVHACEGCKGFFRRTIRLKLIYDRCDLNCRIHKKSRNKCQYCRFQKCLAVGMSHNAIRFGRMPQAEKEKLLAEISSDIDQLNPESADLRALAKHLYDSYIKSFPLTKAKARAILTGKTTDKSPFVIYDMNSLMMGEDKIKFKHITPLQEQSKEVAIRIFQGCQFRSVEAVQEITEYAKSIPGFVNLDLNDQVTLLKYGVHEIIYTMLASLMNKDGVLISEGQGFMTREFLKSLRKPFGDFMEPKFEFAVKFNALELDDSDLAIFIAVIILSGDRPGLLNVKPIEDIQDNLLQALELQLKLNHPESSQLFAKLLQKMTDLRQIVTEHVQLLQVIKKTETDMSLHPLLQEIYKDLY
T1 sequence (P19793 1-462 partner): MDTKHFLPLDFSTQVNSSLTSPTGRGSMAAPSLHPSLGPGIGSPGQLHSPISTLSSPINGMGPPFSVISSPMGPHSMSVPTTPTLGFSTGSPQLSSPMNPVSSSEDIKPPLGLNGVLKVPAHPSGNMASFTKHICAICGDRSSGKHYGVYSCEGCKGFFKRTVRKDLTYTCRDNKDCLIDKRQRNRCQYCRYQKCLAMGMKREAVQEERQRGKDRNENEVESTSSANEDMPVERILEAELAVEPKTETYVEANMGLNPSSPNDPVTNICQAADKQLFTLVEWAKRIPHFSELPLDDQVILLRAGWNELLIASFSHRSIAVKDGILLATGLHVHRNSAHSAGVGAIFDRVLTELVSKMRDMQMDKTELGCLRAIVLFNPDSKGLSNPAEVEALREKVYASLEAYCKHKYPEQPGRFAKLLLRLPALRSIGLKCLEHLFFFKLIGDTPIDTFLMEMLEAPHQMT
Put plainly: PPARγ binding assay (SPA). Also noted: made in house; host or cells: HEK293 (cell lysates). Conditions: concentrations up to 10 μM. The method, then:
Because GPR40 is known to be activated by ligands to PPARγ exemplified compounds are examined in PPARα, PPARδ, and PPARγ binding and functional assays to determine the selectivity of exemplified compounds for GPR40. Compounds exemplified herein are tested essentially as described below for PPAR binding and generally have binding values greater than 1000 nM with 10 μM concentrations of test compound and are thus considered negative for PPAR activity.
Binding affinities of compounds for the PPAR α, δ, and γ receptors are assessed using Scintillation Proximity Assay (SPA) technology. Biotinylated oligonucleotide Direct Repeat 2 (DR2) is used for binding the receptors to Yttrium silicate streptavidin-coated SPA beads. […] Non-specific binding is determined in the presence of 10,000 nM of the unlabeled PPAR α/δ dual agonist reference compound for the alpha and delta receptor assays and the PPARγ agonist reference compound for the gamma receptor assay. The binding reaction (100 μl per well in a 96 well [Costar 3632] plate) is incubated for 10 h and counted disintegration per minutes (dpm) on a Wallac Microbeta. Receptor binding affinity (IC50) for the compounds is determined by fitting an 11 point concentration-response curve with a 4-parameter logistic equation. Ki, is determined from the IC50 using the Cheng-Prussoff equation and Kd determined by saturation binding. […]

On to `CC#C[C@@H](CC(=O)O)c1ccc(OCc2ccc(CN3CCC4(C=Cc5ccccc54)CC3)cc2)cc1` [Example 1, (3S)-3-(4-{[4-(1′H-Spiro[indene-1,4′-piperidin]-1′-ylmethyl)benzyl]oxy}phenyl)hex-4-ynoic acid], for which, in assay [1], the “increase in insulin secretion” value is on record as “two-fold increase”. In addition, in assay [2], the binding detected entry was “no binding is detected”.
